# Data: patent US11046682B2, “Fused heterocyclic derivatives, their preparation methods thereof and medical uses thereof” (Beijing Innocare Pharma Tech Co., Ltd., priority 2016, dated 2021)
# Biological target: full-length human recombinant IDO1 protein (Homo sapiens (Human), UniProt P14902)
# Experiment: IDO enzyme activity inhibition testing (Ehrlich method)
# Format: biochemical
# Details: OD490, 10 concentration points
# Protocol: IDO Enzyme Activity Inhibition Testing
# The effects of the compounds of the invention on the activity of indoleamine 2,3-dioxygenase (IDO) were evaluated by the Ehrlich method.
# The experimental principle is summarized as follows: IDO1 catalyzes oxidation of tryptophan to form N-formyl kynurenine, N-formyl kynurenine is subsequently hydrolyzed by trichloroacetic acid to form kynurenine, and kynurenine further reacts with the Ehrlich reagent to make the solution yellow. The absorbance at 490 nm (OD490) is directly proportional to the activity of IDO1.
# The experimental methods are summarized as follows:
# The reaction buffer was 50 mM 2-(N-morpholine)ethanesulfonic acid-hydrate (Sigma, Cat. No. 69889); the full-length human recombinant IDO1 protein was purchased from the Tsinghua Protein Research Technology Center and diluted to a 33.6 ng/μL enzyme solution with the reaction buffer; the substrate solution was prepared with the reaction buffer containing 20 mM vitamin C (Sigma, Cat. No. A5960), 150 μM L-tryptophan (Sigma, Cat. No. T0254), 2250 UI/mL catalase (Sigma, Cat. No. C30), and 10 μM methylene blue (Sigma, Cat. No. 28514); the reaction termination solution was 30% (mass/volume) trichloroacetic acid (Sigma, Cat. No. T9159) aqueous solution; the Ehrlich reagent was 2% p-dimethylaminobenzaldehyde (Sigma, Cat. No. 156477) acetic acid (Macklin, Cat. No. A801295) solution.
# A compound was dissolved in DMSO (Sigma, Cat. No. D5879) and diluted to 1 mM, then serially diluted 3-fold with DMSO to a minimum concentration of 50.8 nM, and each concentration was further diluted 25-fold with the reaction buffer. If a compound's IC50 value was very low, the initial concentration of the compound was decreased.
# A 10-μL compound solution and a 10-μL enzyme solution were added to a 96-well plate (Sigma, Cat. No. CLS3695), mixed well and incubated at room temperature. After 15 min, a 20-μL substrate solution was added and incubated at 60° C. after mixing for 30 min. The reaction plate was equilibrated to room temperature and 60 μL of the Ehrlich reagent was added. After incubation for 15 min, OD490 of each well was measured.
# In this experiment, OD490 without enzyme was referred as OD490100% inhibition, and OD490 with enzyme added but without compound was referred as OD4900% inhibition.
# Where Y is the percentage of inhibition, Bottom is the bottom platform value of the S-curve, Top is the top platform value of the S-curve, X is the logarithm of the concentration of the test compound, and slope factor is the slope coefficient of the curve.
# Chain of full-length human recombinant IDO1 protein (P14902 whole entry): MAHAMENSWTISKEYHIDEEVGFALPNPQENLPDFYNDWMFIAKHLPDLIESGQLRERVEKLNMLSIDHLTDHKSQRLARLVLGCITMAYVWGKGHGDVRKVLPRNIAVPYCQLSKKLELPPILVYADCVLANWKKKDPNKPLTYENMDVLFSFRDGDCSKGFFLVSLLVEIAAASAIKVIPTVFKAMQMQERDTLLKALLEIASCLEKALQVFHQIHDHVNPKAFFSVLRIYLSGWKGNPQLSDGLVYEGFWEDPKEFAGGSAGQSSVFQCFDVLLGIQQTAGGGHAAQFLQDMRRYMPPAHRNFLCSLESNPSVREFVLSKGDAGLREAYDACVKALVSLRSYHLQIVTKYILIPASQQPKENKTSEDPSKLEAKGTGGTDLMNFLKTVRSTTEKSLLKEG
row,IC50 [nM],Compound
1,< 250,"O=C(Cc1c(-c2ccccc2)ccc2cncn12)Nc1ccc(C(=O)N2CCOCC2)cc1 [Compound 47, N-(4-(morpholine-4-carbonyl)phenyl)-2-(6-phenylimidazo[1,5-a]pyridin-5-yl)acetamide]"
2,250 to 1500,"O=C(Nc1ccc(C(=O)NCCO)cc1)Nc1c(-c2ccccc2)ccc2cncn12 [Compound 30, N-(2-hydroxyethyl)-4-(3-(6-phenylimidazo[1,5-a]pyridin-5-yl)ureido)benzamide]"
3,250 to 1500,"N#Cc1ccc(NC(=O)Cc2cc(Cl)cc3[nH]ncc23)cc1 [Compound 63, 2-(6-chloro-1H-indazol-4-yl)-N-(4-cyanophenyl)acetamide]"
4,250 to 1500,"CCOc1ccc2cncn2c1NC(=O)Nc1ccc(C#N)cc1 [Compound 16, 1-(4-cyanophenyl)-3-(6-ethoxyimidazo[1,5-a]pyridin-5-yl)urea]"
5,< 250,"N#Cc1ccc(CNCc2c(-c3ccccc3)ccc3cncn23)cc1 [Compound 42, 4-((((6-phenylimidazo[1,5-a]pyridin-5-yl)methyl)amino)methyl)benzonitrile]"
6,250 to 1500,"CC(C)CNCc1c(-c2ccccc2)ccc2cncn12 [Compound 61, 2-methyl-N-((6-phenylimidazo[1,5-a]pyridin-5-yl)methyl)propan-1-amine]"
7,250 to 1500,"c1ccc(-c2ccc3cncn3c2CNCC2CCCCC2)cc1 [Compound 59, 1-cyclohexyl-N-((6-phenylimidazo[1,5-a]pyridin-5-yl)methyl)methanamine]"
8,< 250,"N#Cc1ccc(NC(=O)Nc2c(-c3ccccc3)ccc3cncn23)cn1 [Compound 32, 1-(6-cyanopyridin-3-yl)-3-(6-phenylimidazo[1,5-a]pyridin-5-yl)urea]"
9,250 to 1500,"O=C(Nc1ccc(C(=O)O)cc1)Nc1c(-c2ccccc2)ccc2cncn12 [Compound 27, 4-(3-(6-phenylimidazo[1,5-a]pyridin-5-yl)ureido)benzoic acid]"
10,250 to 1500,"COc1ccc2cncn2c1NC(=O)Nc1ccc(C#N)cc1 [Compound 15, 1-(4-cyanophenyl)-3-(6-methoxyimidazo[1,5-a]pyridin-5-yl)urea]"
11,250 to 1500,"N#Cc1ccc(NC(=O)Nc2cccc3cncn23)cc1 [Compound 1, 1-(4-cyanophenyl)-3-(imidazo[1,5-a]pyridin-5-yl)urea]"
12,< 250,"COCCn1cc(-c2ccc(NC(=O)Cc3c(-c4ccccc4)ccc4cncn34)cc2)cn1 [Compound 52, N-(4-(1-(2-methoxyethyl)-1H-pyrazol-4-yl)phenyl)-2-(6-phenylimidazo[1,5-a]pyridin-5-yl)acetamide]"
13,250 to 1500,"N#Cc1ccc(NC(=O)Cc2c(-c3ccccc3)ccc3cncn23)c(CO)c1 [Compound 40, N-(4-cyano-2-(hydroxymethyl)phenyl)-2-(6-phenylimidazo[1,5-a]pyridin-5-yl)acetamide]"
14,< 250,"COC1CCN(C(=O)c2ccc(NC(=O)Cc3c(-c4ccccc4)ccc4cncn34)cc2)CC1 [Compound 48, N-(4-(4-methoxypiperidine-1-carbonyl)phenyl)-2-(6-phenylimidazo[1,5-a]pyridin-5-yl)acetamide]"
15,< 250,"N#Cc1ccc(NC(=O)Nc2cc(Cl)cc3cncn23)cc1 [Compound 20, 1-(7-chloroimidazo[1,5-a]pyridin-5-yl)-3-(4-cyanophenyl)urea]"
16,< 250,"CC(C)(O)CNCc1c(-c2ccccc2)ccc2cncn12 [Compound 62, 2-methyl-1-(((6-phenylimidazo[1,5-a]pyridin-5-yl)methyl)amino)propan-2-ol]"
17,< 250,"N#Cc1ccc(NC(=O)Cc2cc(Cl)cc3cncn23)cc1 [Compound 41, 2-(7-chloroimidazo[1,5-a]pyridin-5-yl)-N-(4-cyanophenyl)acetamide]"
18,< 250,"COc1cc(C#N)ccc1NC(=O)Nc1c(-c2ccccc2)ccc2cncn12 [Compound 35, 1-(4-cyano-2-methoxyphenyl)-3-(6-phenylimidazo[1,5-a]pyridin-5-yl)urea]"
19,250 to 1500,"CN(Cc1ccc(C#N)cc1)Cc1c(-c2ccccc2)ccc2cncn12 [Compound 55, 4-((methyl((6-phenylimidazo[1,5-a]pyridin-5-yl)methyl)amino)methyl)benzonitrile]"
20,< 250,"COc1cc(NC(=O)Nc2c(-c3ccccc3)ccc3cncn23)ccc1C#N [Compound 34, 1-(4-cyano-3-methoxyphenyl)-3-(6-phenylimidazo[1,5-a]pyridin-5-yl)urea]"
21,250 to 1500,"NC(=O)c1ccc(NC(=O)Nc2c(-c3ccccc3)ccc3cncn23)cc1 [Compound 29, 4-(3-(6-phenylimidazo[1,5-a]pyridin-5-yl)ureido)benzamide]"
22,250 to 1500,"c1ccc(CNCc2c(-c3ccccc3)ccc3cncn23)cc1 [Compound 58, N-benzyl-1-(6-phenylimidazo[1,5-a]pyridin-5-yl)methanamine]"
23,< 250,"N#Cc1ccc(NC(=O)Nc2c(F)ccc3cncn23)cc1 [Compound 14, 1-(4-cyanophenyl)-3-(6-fluoroimidazo[1,5-a]pyridin-5-yl)urea]"
24,250 to 1500,"CNC(=O)c1ccc(NC(=O)Nc2c(-c3ccccc3)ccc3cncn23)cc1 [Compound 28, N-methyl-4-(3-(6-phenylimidazo[1,5-a]pyridin-5-yl)ureido)benzamide]"
25,250 to 1500,"N#Cc1ccc(NC(=O)Nc2c(-c3ccccc3)ccc3cncn23)nc1 [Compound 33, 1-(5-cyanopyridin-2-yl)-3-(6-phenylimidazo[1,5-a]pyridin-5-yl)urea]"
26,250 to 1500,"O=C(Nc1ccc(Cl)cc1)Nc1cccc2cncn12 [Compound 3, 1-(4-chlorophenyl)-3-(imidazo[1,5-a]pyridin-5-yl)urea]"
27,< 250,"N#Cc1ccc(N(O)C(=O)Cc2c(-c3ccccc3)ccc3cncn23)cc1 [Compound 45, N-(4-cyanophenyl)-N-hydroxy-2-(6-phenylimidazo[1,5-a]pyridin-5-yl)acetamide]"
